Laboratory results from US9611251B2, “Substituted piperidine compounds and their use as orexin receptor modulators” (Janssen Pharmaceutica NV, priority 2013, dated 2017).
Structures can show the parent of a compound that is named as a salt. Where two headings read alike, the source gives them in different places.

Tests used:
rat orexin 1 receptor = rat orexin 1 receptor (Rattus norvegicus, UniProt P56718); test: Rat orexin 1 receptor radioligand binding
Procedure: (§1) Data are analyzed using pc-Sandy macro and graphed on Graphpad Prism 5. For analysis, each concentration point is averaged from triplicate values and the averaged values are plotted on Graphpad Prism. The IC50 was determined by applying the following equation (GraphPad Prism 5.0, SanDiego) for one site competition where X=log (concentration) and Y=specific binding. Top denotes the total [^3H]-(1-(5-(2-fluoro-phenyl)-2-methyl-thiazol-4-yl)-1-((S)-2-(5-phenyl-(1,3,4)oxadiazol-2-ylmethyl)-pyrrolidin-1-yl)-methanone) binding, bottom denotes the nonspecific [^3H]-(1-(5-(2-fluoro-phenyl)-2-methyl-thiazol-4-yl)-1-((S)-2-(5-phenyl-(1,3,4)oxadiazol-2-ylmethyl)-pyrrolidin-1-yl)-methanone) binding. Graphpad Prism calculates Ki value from IC50 and the pre-determined Kd values for [^3H]-(1-(5-(2-fluoro-phenyl)-2-methyl-thiazol-4-yl)-1-((S)-2-(5-phenyl-(1,3,4)oxadiazol-2-ylmethyl)-pyrrolidin-1-yl)-methanone) and [3H]-EMPA. The Ki for each compound is then uploaded into 3DX. Each run comprises individual compounds in triplicate.
Rat and Human Orexin 1 Receptor Radioligand Binding Studies
After centrifugation (2K×G, 5 min at 4° C.), the supernatant was aspirated and the pellets frozen and stored at −80° C. […] Each cell pellet from a 15 cm plate was resuspended in 10 mL, stored on ice, and homogenized for 45 sec prior to addition to the reactions. Competition binding experiments in 96 well polypropylene plates were performed using [^3H]-(1-(5-(2-fluoro-phenyl)-2-methyl-thiazol-4-yl)-1-((S)-2-(5-phenyl-(1,3,4)oxadiazol-2-ylmethyl)-pyrrolidin-1-yl)-methanone) (Moraveck Corporation, specific activity=35.3 Ci/mmol), diluted to a 10 nM concentration in PBS (4 nM final). […] The final concentration of DMSO in the reactions is equal to or less than 0.1%. Total and nonspecific binding was determined in the absence and presence of 10 μM almorexant. The total volume of each reaction is 200 μL (20 μL of diluted compounds, 80 μL of [^3H]-(1-(5-(2-fluoro-phenyl)-2-methyl-thiazol-4-yl)-1-((S)-2-(5-phenyl-(1,3,4)oxadiazol-2-ylmethyl)-pyrrolidin-1-yl)-methanone) diluted in PBS and 100 μL of the cell suspension). […] The plates were washed 3 times by aspirating 30 ml PBS through the plates. Plates were dried in 55° C. oven for 60 min, scintillation fluid was added, and the radioactivity was counted on a Topcount (Packard).

human orexin 2 receptor = human orexin 2 receptor (Homo sapiens (Human), UniProt O43614); test: Human orexin 2 receptor radioligand binding ([3H]-EMPA); conditions: averages of 2-20 runs, read-out: hOX2 Ki
human orexin 2 receptor, sequence (O43614 whole entry): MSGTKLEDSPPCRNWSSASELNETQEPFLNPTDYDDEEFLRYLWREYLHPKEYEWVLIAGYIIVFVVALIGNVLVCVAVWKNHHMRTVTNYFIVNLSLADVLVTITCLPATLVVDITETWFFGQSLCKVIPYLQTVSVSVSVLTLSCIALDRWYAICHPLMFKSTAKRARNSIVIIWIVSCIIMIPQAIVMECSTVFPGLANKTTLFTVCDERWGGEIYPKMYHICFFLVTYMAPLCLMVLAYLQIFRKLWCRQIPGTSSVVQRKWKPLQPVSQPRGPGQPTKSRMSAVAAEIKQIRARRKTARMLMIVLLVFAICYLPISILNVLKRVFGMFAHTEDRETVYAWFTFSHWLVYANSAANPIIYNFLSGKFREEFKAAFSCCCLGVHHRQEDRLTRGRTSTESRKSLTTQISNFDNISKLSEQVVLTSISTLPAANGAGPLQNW
Procedure: as §1
Human Orexin 2 Receptor Radioligand Binding Studies
HEK293 stably expressing human orexin 2 receptor (Genebank accession number NM_001526) were grown to confluency in DMEM (Hyclone, cat #SH30022), 10% FBS, 1×Pen/Strep, 1× NaPyruvate, 10 mM HEPES, 600 ug/ml G418 media on 150 cm^2 tissue culture plates, washed with 5 mM EDTA in PBS (HyClone Dulbecco's Phosphate Buffered Saline 1× with Calcium and Magnesium, Cat #SH30264.01, hereafter referred to simply as PBS) and scraped into 50 ml tubes. After centrifugation (2K×G, 5 min at 4° C.), the supernatant was aspirated and the pellets frozen and stored at −80° C. […] Each cell pellet from a 15 cm plate was resuspended in 10 mL, stored on ice, and homogenized for 45 sec just prior to addition to the reactions. Competition binding experiments in 96 well polypropylene plates were performed using [^3H]-EMPA (Moraveck Corporation, specific activity=29.6 Ci/mmol), diluted to a 5 nM concentration in PBS (2 nM final concentration). […] The final concentration of DMSO in the reactions is equal to or less than 0.1%. Total and nonspecific binding was determined in the absence and presence of 10 μM almorexant. The total volume of each reaction is 200 μL (20 μL of diluted compounds, 80 μL of [^3H]-EMPA diluted in PBS and 100 μL of the cell suspension). […] The plates were washed 3 times by aspirating 30 ml PBS through the plates. Plates were dried in 55° C. oven for 60 min, scintillation fluid was added, and the radioactivity was counted on a Topcount (Packard).

[1] = rat orexin 1 receptor radioligand binding, averages of 2-20 runs, read-out: rOX1 Ki

| Ki (rat orexin 1 receptor; [1]) | Ki (human orexin 2 receptor) | Structure (SMILES) | Ki (rat orexin 1 receptor) |
| --- | --- | --- | --- |
| 16 nM | – | Cc1ccc(C(=O)N2CCC[C@@H](Nc3ccc(C(F)(F)F)cn3)[C@@H]2C)c(-n2nccn2)c1 (racemic) [Example 13, (±)-trans-(4-methyl-2-(2H-1,2,3-triazol-2-yl)phenyl)(2-methyl-3-((5-(trifluoromethyl)pyridin-2-yl)amino)piperidin-1-yl)methanone] | – |
| 259 nM | 8600 nM | COc1ccc(C(=O)N2CCC[C@@H](Nc3ncc(Cl)cn3)[C@@H]2C)c(-n2nccn2)c1 (relative stereo) [Example 185, ((2 S*,3R*)-3-((5-chloropyrimidin-2-yl)amino)-2-methylpiperidin-1-yl)(4-methoxy-2-(2H-1,2,3-triazol-2-yl)phenyl)methanone] | – |
| 278 nM | 9400 nM | COc1ccc(C(=O)N2CCC[C@@H](Nc3cnc(Cl)cn3)[C@@H]2C)c(-n2nccn2)c1 (relative stereo) [Example 186, ((2S*,3R*)-3-((5-chloropyrazin-2-yl)amino)-2-methylpiperidin-1-yl)(4-methoxy-2-(2H-1,2,3-triazol-2-yl)phenyl)methanone] | – |
| 1100 nM | > 10000 nM | COc1ccc(C(=O)N2CCC[C@@H](Nc3ccc(C(F)(F)F)cn3)[C@@H]2C)c(Cl)n1 (relative stereo) [Example 193, (2-chloro-6-methoxypyridin-3-yl)((2S*,3R*)-2-methyl-3-((5-(trifluoromethyl)pyridin-2-yl)amino)piperidin-1-yl)methanone] | – |
| 357 nM | – | Cc1cnc(C(=O)N2CCC[C@@H](Nc3nnc(C(F)(F)F)s3)[C@@H]2C)c(-n2nccn2)c1 (relative stereo) [Example 195, ((2S*,3R*)-2-methyl-3-((5-(trifluoromethyl)-1,3,4-thiadiazol-2-yl)amino)piperidin-1-yl)(5-methyl-3-(2H-1,2,3-triazol-2-yl)pyridin-2-yl)methanone] | – |
| 1800 nM | > 10000 nM | Cc1ccc(C(=O)N2CCC[C@@H](Nc3nnc(C(F)(F)F)s3)[C@@H]2C)c(-n2nccn2)n1 (relative stereo) [Example 196, (6-methyl-2-(2H-1,2,3-triazol-2-yl)pyridin-3-yl)((2S*,3R*)-2-methyl-3-((5-(trifluoromethyl)-1,3,4-thiadiazol-2-yl)amino)piperidin-1-yl)methanone] | – |
| 332 nM | 6600 nM | Cc1noc(-c2cc(F)ccc2C(=O)N2CCC[C@@H](Nc3ncc(C(F)(F)F)cn3)[C@@H]2C)n1 (relative stereo) [Example 197, (4-fluoro-2-(3-methyl-1,2,4-oxadiazol-5-yl)phenyl)((2S*,3R*)-2-methyl-3-((5-(trifluoromethyl)pyrimidin-2-yl)amino)piperidin-1-yl)methanone] | – |
| > 10000 nM | > 10000 nM | COc1ccc(C(=O)N2CCC[C@@H](Nc3ncc(C(F)(F)F)cn3)[C@@H]2C)c(Cl)n1 (relative stereo) [Example 201, (2-chloro-6-methoxypyridin-3-yl)((2S*,3R*)-2-methyl-3-((5-(trifluoromethyl)pyrimidin-2-yl)amino)piperidin-1-yl)methanone] | – |
| 411 nM | 5800 nM | C[C@H]1[C@H](Nc2ncc(C(F)(F)F)cn2)CCCN1C(=O)c1ccc(F)cc1-c1ncco1 (relative stereo) [Example 205, (4-fluoro-2-(oxazol-2-yl)phenyl)((2S*,3R*)-2-methyl-3-((5-(trifluoromethyl)pyrimidin-2-yl)amino)piperidin-1-yl)methanone] | – |
| – | – | Cc1ccc(-c2ncco2)c(C(=O)N2CCC[C@@H](Nc3ccc(C(F)(F)F)cn3)[C@@H]2C)n1 [Example 25, ((2S,3R)-2-methyl-3-((5-(trifluoromethyl)pyridin-2-yl)amino)piperidin-1-yl)(6-methyl-3-(oxazol-2-yl)pyridin-2-yl)methanone hydrochloride] | 12 nM |
| 8 nM | 2270 nM | Cc1cnc(C(=O)N2CCC[C@@H](Nc3nc4ccccc4o3)[C@@H]2C)c(-n2nccn2)c1 [Example 73, ((2S,3R)-3-(benzo[d]oxazol-2-ylamino)-2-methylpiperidin-1-yl)(5-methyl-3-(2H-1,2,3-triazol-2-yl)pyridin-2-yl)methanone] | – |
| 3400 nM | > 10000 nM | C[C@H]1[C@H](Oc2cnc(C(F)(F)F)cn2)CCCN1C(=O)c1cccnc1-n1nccn1 [Example 148, (2-(2H-1,2,3-triazol-2-yl)pyridin-3-yl)((2S,3R)-2-methyl-3-((5-(trifluoromethyl)pyrazin-2-yl)oxy)piperidin-1-yl)methanone] | – |
| 353 nM | > 10000 nM | C[C@H]1[C@H](Oc2ccc(C(F)(F)F)cn2)CCCN1C(=O)c1cccnc1-n1nccn1 [Example 153, (2-(2H-1,2,3-triazol-2-yl)pyridin-3-yl)((2S,3R)-2-methyl-3-((5-(trifluoromethyl)pyridin-2-yl)oxy)piperidin-1-yl)methanone] | – |
| 621 nM | > 10000 nM | Cc1cnc(-n2nccn2)c(C(=O)N2CCC[C@@H](Oc3ncc(Cl)cn3)[C@@H]2C)c1 [Example 162, ((2S,3R)-3-((5-chloropyrimidin-2-yl)oxy)-2-methylpiperidin-1-yl)(5-methyl-2-(2H-1,2,3-triazol-2-yl)pyridin-3-yl)methanone] | – |
| – | 1050 nM | Cc1cccc(C(=O)N2CCC[C@@H](Oc3ncc(Cl)cn3)[C@@H]2C)c1-n1nccn1 [Example 163, ((2S,3R)-3-((5-chloropyrimidin-2-yl)oxy)-2-methylpiperidin-1-yl)(3-methyl-2-(2H-1,2,3-triazol-2-yl)phenyl)methanone] | – |
| 447 nM | > 10000 nM | COc1ccc(C(=O)N2CCC[C@@H](Oc3cnc(C(F)(F)F)cn3)[C@@H]2C)c(-n2nccn2)c1 [Example 172, (4-methoxy-2-(2H-1,2,3-triazol-2-yl)phenyl)((2S,3R)-2-methyl-3-((5-(trifluoromethyl)pyrazin-2-yl)oxy)piperidin-1-yl)methanone] | – |
| 423 nM | 8200 nM | C[C@H]1[C@H](Oc2cnc(C(F)(F)F)cn2)CCCN1C(=O)c1nccnc1-c1ccccc1 [Example 173, ((2S,3R)-2-methyl-3-((5-(trifluoromethyl)pyrazin-2-yl)oxy)piperidin-1-yl)(3-phenylpyrazin-2-yl)methanone] | – |
| 504 nM | > 10000 nM | COc1ccc(C(=O)N2CCC[C@@H](Oc3ncc(C(F)(F)F)cn3)[C@@H]2C)c(-n2nccn2)c1 [Example 174, (4-methoxy-2-(2H-1,2,3-triazol-2-yl)phenyl)((2S,3R)-2-methyl-3-((5-(trifluoromethyl)pyrimidin-2-yl)oxy)piperidin-1-yl)methanone] | – |
| 374 nM | > 10000 nM | Cc1cnc(-n2nccn2)c(C(=O)N2CCC[C@@H](Oc3ncc(C(F)(F)F)cn3)[C@@H]2C)c1 [Example 176, (5-methyl-2-(2H-1,2,3-triazol-2-yl)pyridin-3-yl)((2S,3R)-2-methyl-3-((5-(trifluoromethyl)pyrimidin-2-yl)oxy)piperidin-1-yl)methanone] | – |
| 679 nM | > 10000 nM | C[C@H]1[C@H](Oc2ncc(C(F)(F)F)cn2)CCCN1C(=O)c1nccnc1-c1ccccc1 [Example 178, ((2S,3R)-2-methyl-3-((5-(trifluoromethyl)pyrimidin-2-yl)oxy)piperidin-1-yl)(3-phenylpyrazin-2-yl)methanone] | – |
